# ChEMBL document CHEMBL1201862, “PubChem BioAssay data set” (2004)
#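 Following 48 hours of exposure in 96-well plates, responses at five concentrations were used to interpolate endpoints linearly. At the GI50, growth is halved.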 Active and inactive are the calls of the source. Cut-off read from the data, not from the text of the source: active = GI50 up to about 1.1 µM and inactive = higher.
# What was measured:
# Experiment in all cases: NCI-60 cell line screen, 48 h
# [1] = test system: CAKI-1
# [2] = test system: CCRF-CEM
# [3] = test system: COLO 205
# [4] = test system: DLD-1
# [5] = test system: KM12
# [6] = test system: M14
# [7] = test system: MOLT-4
# [8] = test system: NCI-H522
# [9] = test system: OVCAR-3
# [10] = test system: SK-MEL-5
# [11] = test system: SN12C
# [12] = test system: SNB-75
# [13] = test system: SW-620
# [14] = test system: UACC-257
# [15] = test system: UO-31
# [16] = test system: NCI-H23
# [17] = test system: OVCAR-5
# [18] = test system: RXF 393
# [19] = test system: BT-549
# [20] = test system: NCI/ADR-RES
SMILES,GI50 [1],GI50 [2],GI50 [3],GI50 [4],GI50 [5],GI50 [6],GI50 [7],GI50 [8],GI50 [9],GI50 [10],GI50 [11],GI50 [12],GI50 [13],GI50 [14],GI50 [15],GI50 [16],GI50 [17],GI50 [18],GI50 [19],GI50 [20]
c1ccc(SC2CCSc3ccccc3C2Sc2ccccc2)cc1 (configuration not stated),22.8 µM (inactive),> 100 µM (inactive),> 10 µM (inactive),> 100 µM (inactive),56.1 µM (inactive),> 100 µM (inactive),> 100 µM (inactive),> 100 µM (inactive),37 µM (inactive),20.9 µM (inactive),> 100 µM (inactive),19.8 µM (inactive),> 100 µM (inactive),27.9 µM (inactive),6.9 µM (inactive),,,,,
CCOC(=O)C(Cc1ccccc1)NC(=O)OC(C)(C)C (configuration not stated),> 10 µM (inactive),> 100 µM (inactive),> 100 µM (inactive),> 100 µM (inactive),> 100 µM (inactive),> 100 µM (inactive),> 100 µM (inactive),> 10 µM (inactive),> 100 µM (inactive),,> 100 µM (inactive),> 100 µM (inactive),> 100 µM (inactive),> 100 µM (inactive),> 100 µM (inactive),> 100 µM (inactive),> 100 µM (inactive),,,
C=CC(=O)NCNC(=O)C=C,> 100 µM (inactive),> 100 µM (inactive),> 100 µM (inactive),> 100 µM (inactive),> 100 µM (inactive),> 100 µM (inactive),> 100 µM (inactive),> 100 µM (inactive),> 100 µM (inactive),> 100 µM (inactive),> 100 µM (inactive),> 100 µM (inactive),> 100 µM (inactive),> 100 µM (inactive),> 100 µM (inactive),> 100 µM (inactive),> 100 µM (inactive),,,
CC(C)(C)C[P+](C)(C)c1ccccc1,> 100 µM (inactive),> 100 µM (inactive),> 100 µM (inactive),> 100 µM (inactive),> 100 µM (inactive),> 100 µM (inactive),> 100 µM (inactive),,91.2 µM (inactive),> 100 µM (inactive),> 100 µM (inactive),> 100 µM (inactive),> 100 µM (inactive),> 100 µM (inactive),> 100 µM (inactive),> 100 µM (inactive),76 µM (inactive),> 100 µM (inactive),,
CSc1cnc2ccccc2c1Sc1cn(C)c2ccccc2c1=O,,19.7 µM (inactive),17 µM (inactive),> 100 µM (inactive),25.8 µM (inactive),> 100 µM (inactive),53.2 µM (inactive),,28.7 µM (inactive),24.4 µM (inactive),28.8 µM (inactive),17 µM (inactive),70.6 µM (inactive),59.4 µM (inactive),25.5 µM (inactive),19.5 µM (inactive),> 100 µM (inactive),38.4 µM (inactive),,
CC(C)/C=N\N1C(N)=C(C#N)C(C#N)(C#N)C1C(C)C (configuration not stated),85.1 µM (inactive),36.2 µM (inactive),48.1 µM (inactive),,44.6 µM (inactive),66.1 µM (inactive),34.8 µM (inactive),62.1 µM (inactive),48.2 µM (inactive),38.3 µM (inactive),69.8 µM (inactive),42.8 µM (inactive),34.6 µM (inactive),47.5 µM (inactive),38 µM (inactive),64.9 µM (inactive),50.2 µM (inactive),17.2 µM (inactive),35.2 µM (inactive),31.3 µM (inactive)
O=[N+]([O-])C(C(Cl)=C(Cl)Cl)=C(n1cncn1)n1cncn1,5.47 µM (inactive),3.37 µM (inactive),13.7 µM (inactive),,50.4 µM (inactive),31.4 µM (inactive),> 33 µM (inactive),14 µM (inactive),18.2 µM (inactive),11.9 µM (inactive),12.4 µM (inactive),> 44.2 µM (inactive),18.8 µM (inactive),31.3 µM (inactive),18.5 µM (inactive),25.6 µM (inactive),15.6 µM (inactive),14.6 µM (inactive),18.7 µM (inactive),25.1 µM (inactive)
CC1C(c2ccc3c(c2)OCO3)c2cc3c(cc2OC1N1CCOCC1)OCO3 (configuration not stated),15.2 µM (inactive),19 µM (inactive),21.1 µM (inactive),,20.5 µM (inactive),24.7 µM (inactive),16.7 µM (inactive),9.04 µM (inactive),20 µM (inactive),17 µM (inactive),33.1 µM (inactive),32.8 µM (inactive),25.9 µM (inactive),35.4 µM (inactive),18.1 µM (inactive),26.5 µM (inactive),46.2 µM (inactive),20.4 µM (inactive),20 µM (inactive),15.8 µM (inactive)
O=C1c2ccccc2CC12Cc1ccccc1C2,48.3 µM (inactive),48.3 µM (inactive),44.7 µM (inactive),,44.9 µM (inactive),49.1 µM (inactive),35.7 µM (inactive),36.6 µM (inactive),44 µM (inactive),16.7 µM (inactive),69.3 µM (inactive),18.2 µM (inactive),> 100 µM (inactive),18.9 µM (inactive),40.1 µM (inactive),> 100 µM (inactive),> 100 µM (inactive),20.6 µM (inactive),83.2 µM (inactive),25.2 µM (inactive)
N#CC(NCCc1ccccc1)c1ccccc1 (configuration not stated),> 100 µM (inactive),> 100 µM (inactive),> 100 µM (inactive),,> 100 µM (inactive),> 100 µM (inactive),> 100 µM (inactive),> 100 µM (inactive),> 100 µM (inactive),> 100 µM (inactive),> 100 µM (inactive),> 100 µM (inactive),> 100 µM (inactive),> 100 µM (inactive),> 100 µM (inactive),> 100 µM (inactive),> 100 µM (inactive),> 100 µM (inactive),> 100 µM (inactive),> 100 µM (inactive)
COC(=O)C1=C(O)C(C(=O)OC)[C@@]2(O)[C@@H](C(=O)OC)C(c3ccc(OC(=O)/C(=C/c4ccc(Cl)cc4)c4ccc(Cl)cc4)cc3)C[C@@H]1[C@@H]2C(=O)OC (some centres not stated),15.9 µM (inactive),6.3 µM (inactive),24 µM (inactive),,37.8 µM (inactive),15.6 µM (inactive),4.45 µM (inactive),36.6 µM (inactive),51.1 µM (inactive),26.1 µM (inactive),25.9 µM (inactive),28.3 µM (inactive),31.1 µM (inactive),52.6 µM (inactive),12.6 µM (inactive),50.1 µM (inactive),30.1 µM (inactive),11.2 µM (inactive),95.7 µM (inactive),57.7 µM (inactive)
CN/N=C(\C)C(CN(C)C)C(c1ccccc1)c1c(O)c2ccccc2oc1=O (configuration not stated),> 100 µM (inactive),73.6 µM (inactive),40.4 µM (inactive),,> 100 µM (inactive),> 100 µM (inactive),75.5 µM (inactive),> 100 µM (inactive),49.5 µM (inactive),> 100 µM (inactive),> 100 µM (inactive),> 100 µM (inactive),> 100 µM (inactive),> 100 µM (inactive),> 100 µM (inactive),> 100 µM (inactive),> 100 µM (inactive),0.441 µM (active),24.3 µM (inactive),> 100 µM (inactive)
CC(=O)O[C@H]1C(=O)[C@]2(C)[C@@H](OC(=O)OCC(O)CO)C[C@H]3OC[C@@]3(OC(C)=O)[C@H]2[C@H](OC(=O)c2ccccc2)[C@]2(O)C[C@H](OC(=O)[C@H](O)[C@@H](NC(=O)c3ccccc3)c3ccccc3)C(C)=C1C2(C)C (some centres not stated) [PACLITAXEL CERIBATE],0.893 µM (active),< 0.01 µM (active),< 0.01 µM (active),,< 0.01 µM (active),< 0.01 µM (active),< 0.01 µM (active),< 0.01 µM (active),< 0.01 µM (active),< 0.01 µM (active),< 0.01 µM (active),< 0.01 µM (active),< 0.01 µM (active),< 0.01 µM (active),0.601 µM (active),< 0.01 µM (active),< 0.01 µM (active),< 0.01 µM (active),< 0.0147 µM (active),1.1 µM (active)
CC[C@]1(Cc2ccc(OC)c(OC)c2)C=[N+]([O-])O[C@H](OC2CCCCC2c2ccccc2)[C@@H]1OC(C)=O (some centres not stated),21.2 µM (inactive),23.2 µM (inactive),19.9 µM (inactive),,39.6 µM (inactive),45.3 µM (inactive),17.3 µM (inactive),25.6 µM (inactive),33.4 µM (inactive),38.1 µM (inactive),36.6 µM (inactive),32.2 µM (inactive),40.2 µM (inactive),67.3 µM (inactive),41.2 µM (inactive),56.1 µM (inactive),> 100 µM (inactive),22.5 µM (inactive),70.8 µM (inactive),41.8 µM (inactive)
O=C1C2c3[nH]c4ccccc4c3C3CCC(c4ccccc4)CC3C2C(=O)N1c1ccccc1 (configuration not stated),,44.3 µM (inactive),> 100 µM (inactive),> 100 µM (inactive),> 100 µM (inactive),> 100 µM (inactive),83.8 µM (inactive),,> 100 µM (inactive),> 100 µM (inactive),> 100 µM (inactive),27.3 µM (inactive),> 100 µM (inactive),,> 100 µM (inactive),> 100 µM (inactive),> 100 µM (inactive),> 100 µM (inactive),,
